Experimental data as given in patent publication US6737383B1, “Herbicidal oxadiazolidines” (priority 1999, dated 2004).

Columns and labels:
bedstraw = assay: Test B pre/postemergence bedstraw; type: in vivo, Galium aparine; settings: Preemergence; for Bedstraw plant response rating: scale 0 to 10, 0 is no effect, 10 is complete control
In short: (§1)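 Herbicidal effect was estimated by eye on a ten-point control scale after plants spent twelve to sixteen days in a greenhouse following soil or foliar treatment. Foliar sprays targeted plants at one to four leaves; all doses were formulated in a non-phytotoxic solvent with surfactant.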

blackgrass = assay: Test B pre/postemergence blackgrass; type: in vivo, Alopecurus myosuroides
In short: as §1

surinam grass = assay: Test B pre/postemergence surinam grass; type: in vivo, Brachiaria decumbens
In short: as §1

cocklebur = assay: Test B pre/postemergence cocklebur; type: in vivo, Xanthium strumarium
In short: as §1

corn = assay: Test B pre/postemergence corn; type: in vivo, Zea mays
In short: as §1

crabgrass = assay: Test B pre/postemergence crabgrass; type: in vivo, Digitaria sanguinalis
In short: as §1

giant foxtail = assay: Test B pre/postemergence giant foxtail; type: in vivo, Setaria faberii
In short: as §1

morningglory = assay: Test B pre/postemergence morningglory; type: in vivo, Ipomoea hederacea
In short: as §1

pigweed = assay: Test B pre/postemergence pigweed; type: in vivo, Amaranthus retroflexus
In short: as §1

rape = assay: Test B pre/postemergence rape; type: in vivo, Brassica napus
In short: as §1

soybean = assay: Test B pre/postemergence soybean; type: in vivo, Glycine max
In short: as §1

sugar beet = assay: Test B pre/postemergence sugar beet; type: in vivo, Beta vulgaris
In short: as §1

velvetleaf = assay: Test B pre/postemergence velvetleaf; type: in vivo, Abutilon theophrasti
In short: as §1

wheat = assay: Test B pre/postemergence wheat; type: in vivo, Triticum aestivum
In short: as §1

wild oat = assay: Test B pre/postemergence wild oat; type: in vivo, Avena fatua
In short: as §1

purple nutsedge = assay: Test B pre/postemergence purple nutsedge; type: in vivo, Cyperus rotundus
In short: as §1

rice = assay: Test B flood test rice; type: in vivo, Oryza sativa
In short: (§2)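 Flood test on plants grown to the 2-leaf stage; treated plants kept in greenhouse twelve to sixteen days, then visually rated against controls on a 0 (no effect) to 10 (complete control) scale.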

smallflower flatsedge = assay: Test B flood test smallflower flatsedge; type: in vivo, Cyperus difformis
In short: as §2

duck salad = assay: Test B flood test duck salad; type: in vivo, Heteranthera limosa
In short: as §2

bamyardgrass = assay: Test B flood test barnyardgrass; type: in vivo, Echinochloa crus-galli
In short: as §2

[1] = Postemergence, Rate 125 g/ha, scale 0 to 10, 0 is no effect, 10 is complete control
[2] = Postemergence, Rate 250 g/ha, scale 0 to 10
[3] = Postemergence, Rate 500 g/ha, scale 0 to 10, 0 is no effect, 10 is complete control
[4] = Preemergence, Rate 62 g/ha, scale of 0 to 10 where 0 is no effect and 10 is complete control
[5] = Preemergence, Rate 125 g/ha, scale 0 to 10, 0 is no effect, 10 is complete control
[6] = Preemergence, Rate 250 g/ha, scale 0 to 10, 0 is no effect, 10 is complete control
[7] = Preemergence, Rate 500 g/ha, scale 0 to 10, 0 is no effect, 10 is complete control
[8] = Rate 62 g/ha, Postemergence, scale 0 to 10 (0 no effect, 10 complete control)
[9] = Rate 62 g/ha, flood test species, Pre-emergence, visual evaluation after twelve to sixteen days
[10] = Rate 125 g/ha, under heading Pre-emergence, flood test species, visual evaluation after twelve to sixteen days
[11] = Rate 250 g/ha, Pre-emergence (flood test species), scale 0 to 10, 0 is no effect, 10 is complete control
[12] = Rate 500 g/ha, Pre-emergence section of Table B, 0 to 10 scale (0 no effect, 10 complete control)

CC(C)N(C(=O)n1oc(=O)n(CCNC(=O)CCl)c1=O)c1ccccc1 [Compound 492]
Plant response rating, Bedstraw (bedstraw; Rate 62 g/ha, scale of 0 to 10 where 0 is no effect and 10 is complete control): 0 | Bedstraw plant response rating (bedstraw; Rate 125 g/ha): 0 | Bedstraw plant response rating (bedstraw; Rate 250 g/ha): 0 | Bedstraw plant response rating (bedstraw; Rate 500 g/ha): 0 | Blackgrass plant response rating (blackgrass; [1]): 0 | Blackgrass plant response rating (blackgrass; [2]): 0 | Plant response rating, Blackgrass (blackgrass; [3]): 0 | Plant response rating, Blackgrass (blackgrass; [4]): 0 | Blackgrass plant response rating (blackgrass; [5]): 0 | Blackgrass plant response rating (blackgrass; [6]): 0 | Blackgrass plant response rating (blackgrass; [7]): 0 | Blackgrass plant response rating (blackgrass; [8]): 0 | B. signalgrass plant response rating (surinam grass; [1]): 0 | B. signalgrass plant response rating (surinam grass; Postemergence, Rate 250 g/ha, scale 0 to 10, 0 no effect, 10 complete control): 0 | Plant response rating, B. signalgrass (surinam grass; [3]): 0 | Plant response rating, B. signalgrass (surinam grass; [4]): 0 | B. signalgrass plant response rating (surinam grass; [5]): 0 | B. signalgrass plant response rating (surinam grass; [6]): 0 | B. signalgrass plant response rating (surinam grass; [7]): 0 | B. signalgrass plant response rating (surinam grass; [8]): 0 | Cocklebur plant response rating (cocklebur; [1]): 0 | Cocklebur plant response rating (cocklebur; [2]): 0 | Plant response rating, Cocklebur (cocklebur; [3]): 0 | Plant response rating, Cocklebur (cocklebur; [4]): 0 | Cocklebur plant response rating (cocklebur; [5]): 0 | Cocklebur plant response rating (cocklebur; [6]): 0 | Cocklebur plant response rating (cocklebur; [7]): 0 | Cocklebur plant response rating (cocklebur; [8]): 0 | Corn plant response rating (corn; [1]): 0 | Corn plant response rating (corn; [2]): 0 | Plant response rating, Corn (corn; [3]): 0 | Plant response rating, Corn (corn; [4]): 0 | Corn plant response rating (corn; [5]): 0 | Corn plant response rating (corn; [7]): 0 | Corn plant response rating (corn; [8]): 0 | Crabgrass plant response rating (crabgrass; [2]): 0 | Plant response rating, Crabgrass (crabgrass; [3]): 0 | Plant response rating, Crabgrass (crabgrass; [4]): 0 | Crabgrass plant response rating (crabgrass; [5]): 0 | Crabgrass plant response rating (crabgrass; [7]): 3 | Crabgrass plant response rating (crabgrass; [8]): 0 | Giant foxtail plant response rating (giant foxtail; [1]): 0 | Plant response rating, Giant foxtail (giant foxtail; [3]): 0 | Plant response rating, Giant foxtail (giant foxtail; [4]): 2 | Giant foxtail plant response rating (giant foxtail; [5]): 0 | Giant foxtail plant response rating (giant foxtail; [7]): 9 | Giant foxtail plant response rating (giant foxtail; [8]): 0 | Morningglory plant response rating (morningglory; [1]): 5 | Plant response rating, Morningglory (morningglory; [3]): 8 | Plant response rating, Morningglory (morningglory; [4]): 0 | Morningglory plant response rating (morningglory; [5]): 0 | Morningglory plant response rating (morningglory; [7]): 0 | Morningglory plant response rating (morningglory; [8]): 0 | Redroot pigweed plant response rating (pigweed; [1]): 0 | Plant response rating, Redroot pigweed (pigweed; [3]): 7 | Plant response rating, Redroot pigweed (pigweed; [4]): 0 | Redroot pigweed plant response rating (pigweed; [5]): 0 | Redroot pigweed plant response rating (pigweed; [7]): 0 | Redroot pigweed plant response rating (pigweed; [8]): 0 | Rape plant response rating (rape; [1]): 0 | Plant response rating, Rape (rape; [3]): 0 | Plant response rating, Rape (rape; [4]): 0 | Rape plant response rating (rape; [5]): 0 | Rape plant response rating (rape; [7]): 0 | Rape plant response rating (rape; [8]): 0 | Soybean plant response rating (soybean; [1]): 0 | Plant response rating, Soybean (soybean; [3]): 0 | Plant response rating, Soybean (soybean; [4]): 0 | Soybean plant response rating (soybean; [5]): 0 | Soybean plant response rating (soybean; [7]): 0 | Soybean plant response rating (soybean; [8]): 0 | Sugarbeets plant response rating (sugar beet; [1]): 0 | Plant response rating, Sugarbeets (sugar beet; [3]): 0 | Plant response rating, Sugarbeets (sugar beet; [4]): 0 | Sugarbeets plant response rating (sugar beet; [5]): 0 | Sugarbeets plant response rating (sugar beet; [7]): 0 | Sugarbeets plant response rating (sugar beet; [8]): 0 | Velvetleaf plant response rating (velvetleaf; [1]): 0 | Plant response rating, Velvetleaf (velvetleaf; [3]): 0 | Plant response rating, Velvetleaf (velvetleaf; [4]): 0 | Velvetleaf plant response rating (velvetleaf; [5]): 0 | Velvetleaf plant response rating (velvetleaf; [7]): 4 | Velvetleaf plant response rating (velvetleaf; [8]): 0 | Wheat plant response rating (wheat; [1]): 0 | Plant response rating, Wheat (wheat; [3]): 0 | Plant response rating, Wheat (wheat; [4]): 0 | Wheat plant response rating (wheat; [5]): 0 | Wheat plant response rating (wheat; [7]): 0 | Wheat plant response rating (wheat; [8]): 0 | Wild oats plant response rating (wild oat; [1]): 0 | Plant response rating, Wild oats (wild oat; [3]): 0 | Plant response rating, Wild oats (wild oat; [4]): 0 | Wild oats plant response rating (wild oat; [5]): 0 | Wild oats plant response rating (wild oat; [7]): 0 | Wild oats plant response rating (wild oat; [8]): 0 | Nutsedge plant response rating (purple nutsedge; [1]): 0 | Plant response rating, Nutsedge (purple nutsedge; [3]): 0 | Plant response rating, Nutsedge (purple nutsedge; [4]): 0 | Nutsedge plant response rating (purple nutsedge; [5]): 0 | Nutsedge plant response rating (purple nutsedge; [7]): 0 | Nutsedge plant response rating (purple nutsedge; [8]): 0 | Plant response rating, Rice (0 to 10 scale, 0 is no effect, 10 is complete control) (rice; [9]): 0 | Rice plant response rating (0 to 10 scale, 0 is no effect, 10 is complete control) (rice; [10]): 0 | Rice plant response rating (rice; [11]): 0 | Rice plant response rating (rice; [12]): 0 | Plant response rating, S. Flatsedge (0 to 10 scale, 0 is no effect, 10 is complete control) (smallflower flatsedge; [9]): 0 | S. Flatsedge plant response rating (0 to 10 scale, 0 is no effect, 10 is complete control) (smallflower flatsedge; [10]): 0 | S. Flatsedge plant response rating (smallflower flatsedge; [11]): 0 | S. Flatsedge plant response rating (smallflower flatsedge; [12]): 0 | Plant response rating, Ducksalad (0 to 10 scale, 0 is no effect, 10 is complete control) (duck salad; [9]): 0 | Ducksalad plant response rating (0 to 10 scale, 0 is no effect, 10 is complete control) (duck salad; [10]): 0 | Ducksalad plant response rating (duck salad; [11]): 0 | Ducksalad plant response rating (duck salad; [12]): 0 | Plant response rating, Barnyardgrass (0 to 10 scale, 0 is no effect, 10 is complete control) (bamyardgrass; [9]): 0 | Barnyardgrass plant response rating (0 to 10 scale, 0 is no effect, 10 is complete control) (bamyardgrass; [10]): 0 | Barnyardgrass plant response rating (bamyardgrass; [11]): 0 | Barnyardgrass plant response rating (bamyardgrass; [12]): 0
